Laboratory results as given in ChEMBL document CHEMBL4616710, “Discovery of a Potent Anticancer Agent PVHD303 with in Vivo Activity” (ACS Med Chem Lett, 2020).

System: A549
Experiment: Antiproliferative activity against human A549 cells assessed as cell growth inhibition incubated for 72 hrs by CellTiter96 Aqueous one solution cell proliferation assay
Assay type: functional, cell-based
Details: A549, 72 h

Row | SMILES | IC50 [nM]
1 | COc1ccc(C(C)(O)c2ncnc3cccc(F)c23)cc1 (stereo not given) | 12000
2 | COc1ccc(C(C)(O)c2nc(-c3ccc(O)cc3)nc3ccccc23)cc1 (stereo not given) | 1410
3 | COc1ccc(C(C)(O)c2ncnc3c(Cl)cccc23)cc1 (stereo not given) | 240
4 | COc1ccc(C(C)(O)c2ncnc3cc(F)ccc23)cc1 (stereo not given) | 4670
5 | COc1ccc(C(C)(O)c2ncnc3c(C)cccc23)cc1 (stereo not given) | 1560
6 | COc1ccc(C(C)(O)c2ncnc3c(OC)cccc23)cc1 (stereo not given) | 2100
7 | COc1ccc(C(C)(O)c2nc(N3CCC3)nc3ccccc23)cc1 (stereo not given) | 1100
8 | COc1ccc(C(C)(O)c2nc(N3CCC(OC)CC3)nc3ccccc23)cc1 (stereo not given) | 1220
9 | COc1ccc(C(C)(O)c2ncnc3ccc(OC)cc23)cc1 (stereo not given) | 5160
10 | COc1ccc(C(C)(O)c2nc(-c3cn[nH]c3)nc3ccccc23)cc1 (stereo not given) | 254
11 | COc1ccc(C(C)(O)c2nc(-c3coc(C=O)c3)nc3ccccc23)cc1 (stereo not given) | 1010
12 | COc1ccc(C(C)(O)c2nc(N3CCC(Cl)CC3)nc3ccccc23)cc1 (stereo not given) | 3670
13 | COc1ccc(C(C)(O)c2nc(-c3ccc4c(c3)OCO4)nc3ccccc23)cc1 (stereo not given) | 1170
14 | COc1ccc(C(C)(O)c2nc(C3CC3)nc3ccccc23)cc1 (stereo not given) | 637
15 | COc1ccc(C(C)(O)c2nc(N3CCCC3)nc3ccccc23)cc1 (stereo not given) | 1260

Compounds with a lower IC50, results first:

Row | IC50 [nM] | SMILES
16 | 36 | COc1ccc(C(C)(O)c2nc(-c3ccco3)nc3ccccc23)cc1 (stereo not given)
17 | 80 | COc1ccc(C(C)(O)c2ncnc3ccc(Cl)cc23)cc1 (stereo not given)
18 | 48 | COc1ccc(C(C)(O)c2nc(-c3ccc(F)cc3)nc3ccccc23)cc1 (stereo not given)
19 | 27 | C=Cc1nc(C(C)(O)c2ccc(OC)cc2)c2ccccc2n1 (stereo not given)
20 | 59 | COc1ccc(C(C)(O)c2nc(-c3c(C)noc3C)nc3ccccc23)cc1 (stereo not given)
21 | 21 | CC[C@]1(O)C[C@@H]2CN(CCc3c([nH]c4ccccc34)[C@@](C(=O)OC)(c3cc4c(cc3OC)N(C)[C@H]3[C@@](O)(C(=O)OC)[C@H](OC(C)=O)[C@]5(CC)C=CCN6CC[C@]43[C@@H]65)C2)C1 [VINBLASTINE]
22 | 13 | COc1ccc(C(C)(O)c2nc(-c3ccc(C#N)s3)nc3ccccc23)cc1 (stereo not given)
23 | 50 | COc1ccc(C(C)(O)c2nc(N)nc3ccccc23)cc1 (stereo not given)
24 | 60 | COc1ccc(C(C)(O)c2nc(-c3cccnc3)nc3ccccc23)cc1 (stereo not given)
25 | 220 | COc1ccc(C(C)(O)c2nc(N3CC=CC3)nc3ccccc23)cc1 (stereo not given)
